Assays:
[1] = tested on: Rabbit Psoas myofibrils (skeletal myosin ATPase); experiment: Myofibril ATPase assay, rabbit psoas (skeletal) myofibrils; format: biochemical; conditions: rabbit psoas myofibrils
How it was run: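 Rabbit psoas skeletal myofibrils in PIPES/CaCl2/EGTA pCa buffer, pH 7.0. ATPase rate followed by PK-LDH-coupled NADH loss at 340 nm, read every 1.5–2 min for 75 min. Slopes normalized to vehicle (100%) and fitted to a 4-parameter logistic; values are Y75 (25% inhibition) or Y125 (25% activation) concentrations.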

[2] = tested on: Porcine atria myofibrils (atrial myosin ATPase); experiment: Myofibril ATPase assay, porcine atria myofibrils; format: biochemical; conditions: porcine atria myofibrils
How it was run: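 Coupled PK-LDH reaction links ADP from myosin ATPase to NADH loss, read at 340 nm every 1.5-2 min for 75 min. Slopes (mAU/min) normalized to vehicle-only wells (100%) and fit to a 4-parameter logistic; Y75 is the concentration cutting activity by 25%, Y125 is reported for activators.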

[3] = target: T1, Porcine ventricle myofibrils (ventricular myosin ATPase) (Sus scrofa, UniProt P79293); experiment: Myofibril ATPase assay, porcine ventricle myofibrils; format: biochemical, porcine (Yucatan minipigs); conditions: porcine ventricle myofibrils
T1 construct: Myofibrils from porcine cardiac muscle was isolated from the left ventricle of Yucatan minipigs; tissue Exemplar Genetics; host or cells: left ventricle of Yucatan minipigs, myofibrils prepared in house
How it was run: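 Test compounds acted on myofibrils isolated from the left ventricle of Yucatan minipigs. ADP formation was coupled via pyruvate kinase/lactate dehydrogenase to NADH oxidation, monitored kinetically at 340 nm over 75 min. Rates relative to vehicle were fitted with a 4-parameter logistic model, reported as Y75 (25% inhibition) or Y125 (activation) concentrations.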

[4] = Y75 value (75% activity relative to no compound)
[5] = ‡ Y125 value, not a Y75 value (125% activity relative to no compound)

T1 sequence (P79293 whole entry): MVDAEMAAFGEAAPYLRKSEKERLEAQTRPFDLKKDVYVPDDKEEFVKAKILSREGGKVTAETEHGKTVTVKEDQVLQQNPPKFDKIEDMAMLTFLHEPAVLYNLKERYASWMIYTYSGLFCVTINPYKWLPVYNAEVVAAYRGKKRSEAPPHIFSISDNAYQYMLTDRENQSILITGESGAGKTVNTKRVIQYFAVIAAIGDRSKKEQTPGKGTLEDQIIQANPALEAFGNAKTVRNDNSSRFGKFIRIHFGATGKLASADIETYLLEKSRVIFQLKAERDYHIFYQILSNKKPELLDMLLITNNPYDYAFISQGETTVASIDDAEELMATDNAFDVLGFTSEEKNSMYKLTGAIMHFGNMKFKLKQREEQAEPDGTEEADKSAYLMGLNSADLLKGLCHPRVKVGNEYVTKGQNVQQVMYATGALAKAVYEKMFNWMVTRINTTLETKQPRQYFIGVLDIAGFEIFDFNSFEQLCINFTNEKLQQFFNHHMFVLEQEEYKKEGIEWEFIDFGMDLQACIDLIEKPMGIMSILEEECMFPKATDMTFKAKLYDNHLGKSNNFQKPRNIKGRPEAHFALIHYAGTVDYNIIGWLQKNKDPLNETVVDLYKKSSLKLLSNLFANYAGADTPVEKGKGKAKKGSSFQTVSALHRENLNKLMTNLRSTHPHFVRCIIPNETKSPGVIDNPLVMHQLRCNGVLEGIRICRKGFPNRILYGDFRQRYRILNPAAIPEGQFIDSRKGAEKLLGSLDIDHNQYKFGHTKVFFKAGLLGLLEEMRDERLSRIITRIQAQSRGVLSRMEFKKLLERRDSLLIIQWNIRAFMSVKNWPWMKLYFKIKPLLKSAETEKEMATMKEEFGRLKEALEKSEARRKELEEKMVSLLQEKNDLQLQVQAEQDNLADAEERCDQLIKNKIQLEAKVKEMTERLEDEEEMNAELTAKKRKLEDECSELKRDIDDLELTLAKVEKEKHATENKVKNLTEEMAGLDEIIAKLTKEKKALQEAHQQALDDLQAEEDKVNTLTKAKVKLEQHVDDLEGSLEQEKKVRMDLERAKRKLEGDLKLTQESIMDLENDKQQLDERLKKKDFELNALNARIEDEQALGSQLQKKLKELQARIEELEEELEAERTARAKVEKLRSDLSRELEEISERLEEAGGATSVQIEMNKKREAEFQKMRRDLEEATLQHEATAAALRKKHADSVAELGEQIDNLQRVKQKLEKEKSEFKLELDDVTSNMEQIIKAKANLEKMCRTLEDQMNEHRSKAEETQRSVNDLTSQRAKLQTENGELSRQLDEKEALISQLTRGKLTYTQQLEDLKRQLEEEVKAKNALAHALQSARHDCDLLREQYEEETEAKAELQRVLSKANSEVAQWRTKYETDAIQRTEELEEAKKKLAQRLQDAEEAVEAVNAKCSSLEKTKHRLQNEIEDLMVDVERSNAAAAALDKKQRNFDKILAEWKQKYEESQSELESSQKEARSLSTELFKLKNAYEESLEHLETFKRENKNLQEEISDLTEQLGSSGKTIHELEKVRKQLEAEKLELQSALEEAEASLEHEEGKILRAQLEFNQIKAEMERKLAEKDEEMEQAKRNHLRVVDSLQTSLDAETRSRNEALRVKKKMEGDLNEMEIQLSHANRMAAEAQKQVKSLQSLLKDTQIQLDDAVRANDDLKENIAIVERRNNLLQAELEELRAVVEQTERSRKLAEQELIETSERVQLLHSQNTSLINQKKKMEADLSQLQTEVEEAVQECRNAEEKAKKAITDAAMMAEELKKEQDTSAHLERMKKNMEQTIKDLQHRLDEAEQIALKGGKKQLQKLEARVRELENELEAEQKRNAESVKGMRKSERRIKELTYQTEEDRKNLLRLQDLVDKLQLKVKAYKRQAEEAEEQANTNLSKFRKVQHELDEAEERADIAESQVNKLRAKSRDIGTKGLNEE

| Skeletal EC25 ([1]; Y75 value (no ‡ mark)) | Atrial EC25 ([2]; Y75 value (no ‡ mark)) | Ventricular EC25 ([3]; Y75 value (no ‡ mark)) | Skeletal EC25 ([1]; Y75 value) | Atrial EC25 [2, 4] | Ventricular EC25 ([3]; Y75 value) | Skeletal EC25 [1, 5] | Ventricular EC25 [3, 5] | Compound |
| --- | --- | --- | --- | --- | --- | --- | --- | --- |
| 0.19 µM | 200 nM | 1.23 µM | – | – | – | – | – | C[C@H](NC(=O)C(F)(F)c1cc2c(F)c(F)ccc2[nH]c1=O)c1ncc(C#N)cn1 (single isomer, unassigned) [compound 2546] |
| – | – | – | 0.08 µM | 80 nM | 0.55 µM | – | – | Cc1c([C@H](C)C(=O)N[C@@H](C)c2ccc(C#N)cc2F)c(=O)[nH]c2ccnc(C#N)c12 (single isomer, unassigned) [compound 174] |
| 7.39 µM | 18000 nM | 76 µM | – | – | – | – | – | Cc1c(CC(=O)N[C@@H](C)c2ncc(C#N)cn2)c(=O)[nH]c2cc(F)ccc12 [compound 1041] |
| 0.05 µM | 160 nM | 0.39 µM | – | – | – | – | – | Cc1c(CC(=O)N[C@@H](C)c2ncc(F)cc2F)c(=O)[nH]c2ccc(F)c(C(F)(F)F)c12 [compound 10] |
| 100.00 µM | 100000 nM | 100.00 µM | – | – | – | – | – | C[C@H](NC(=O)C1(c2cc3c(F)c(F)ccc3[nH]c2=O)CC1)c1nccc(C#N)n1 (single isomer, unassigned) [compound 2506] |
| 0.23 µM | 1550 nM | 4.14 µM | – | – | – | – | – | C[C@H](NC(=O)Cc1cc2c(F)cccc2[nH]c1=O)c1ccc(C#N)cn1 [compound 48] |
| 0.43 µM | 4480 nM | 4.80 µM | – | – | – | – | – | C[C@@H](NC(=O)Cc1cc2c(F)cccc2[nH]c1=O)c1ccc(C#N)cn1 [compound 47] |
| 21 µM | 100000 nM | 100.00 µM | – | – | – | – | – | Cc1c(CC(=O)N[C@H]2COCc3cc(C#N)cnc32)c(=O)[nH]c2ccc(F)cc12 [compound 1057] |
| – | – | – | 100.00 µM | 100000 nM | 100.00 µM | – | – | Cc1nccc2[nH]c(=O)c(CC(=O)NC[C@H](CO)c3ccccc3)c(C)c12 [compound 493] |
| 0.03 µM | 60 nM | 0.49 µM | – | – | – | – | – | CCc1c(CC(=O)N[C@@H](C)c2ccc(F)cc2F)c(=O)[nH]c2ccccc12 [compound 126] |
| 0.02 µM | 30 nM | 0.07 µM | – | – | – | – | – | Cc1c(CC(=O)N[C@@H](C)c2ccc(F)cc2F)c(=O)[nH]c2ccc(F)c(Cl)c12 [compound 85] |
| 0.04 µM | 70 nM | 0.17 µM | – | – | – | – | – | Cc1c(C(F)(F)C(=O)N[C@@H](C)c2ncc(C#N)cc2F)c(=O)[nH]c2ccc(F)cc12 (single isomer, unassigned) [compound 2607] |
| – | – | – | 100.00 µM | 100000 nM | 100.00 µM | – | – | Cc1nccc2[nH]c(=O)c(CC(=O)N[C@H](C)c3cccnc3O)c(C)c12 (single isomer, unassigned) [compound 302] |
| – | – | – | 100.00 µM | 1530 nM | 30.78 µM | – | – | Cc1c(CC(=O)N[C@@H](C)c2ccc(C#N)cn2)c(=O)[nH]c2ccc(C(F)(F)F)nc12 [compound 460] |
| 0.43 µM | 90 nM | 1.56 µM | – | – | – | – | – | C[C@@H](NC(=O)Cc1cc2c(F)c(F)ccc2[nH]c1=O)c1ccc(C#N)cn1 [compound 17] |
| 0.21 µM | 6130 nM | 1.40 µM | – | – | – | – | – | C[C@H](NC(=O)Cc1c(C2CC2)c2c(F)c(F)ccc2[nH]c1=O)c1ccc(C#N)cn1 [compound 26] |
| – | – | – | 0.02 µM | 70 nM | 0.57 µM | – | – | Cc1c(CC(=O)N[C@@H](C)c2ncc(F)cc2F)c(=O)[nH]c2ccnc(C#N)c12 (single isomer, unassigned) [compound 305] |
| 0.28 µM | 760 nM | 2.64 µM | – | – | – | – | – | Cc1c(F)ccc2[nH]c(=O)c(C(F)(F)C(=O)N[C@H](C)c3ncc(C#N)cn3)c(C#N)c12 (single isomer, unassigned) [Compound 2511] |
| 0.15 µM | 490 nM | 1.45 µM | – | – | – | – | – | Cc1c(CC(=O)N[C@H](C)c2ncc(C#N)cn2)c(=O)[nH]c2ccc(F)c(C#N)c12 (single isomer, unassigned) [compound 2015] |
| 0.16 µM | 600 nM | 1.53 µM | – | – | – | – | – | Cc1c(C(F)(F)C(=O)N[C@@H](C)c2ncc(C#N)cn2)c(=O)[nH]c2ccc(F)c(C(F)(F)F)c12 (single isomer, unassigned) [Compound 2514] |
| 0.47 µM | 970 nM | 2.55 µM | – | – | – | – | – | Cc1c(CC(=O)N[C@@H](C)c2ccc(C#N)cn2)c(=O)[nH]c2cc(F)c(F)cc12 [compound 1113] |

The next lines start with the molecule.

| Compound | Skeletal EC25 ([1]; Y75 value (no ‡ mark)) | Atrial EC25 ([2]; Y75 value (no ‡ mark)) | Ventricular EC25 ([3]; Y75 value (no ‡ mark)) | Skeletal EC25 ([1]; Y75 value) | Atrial EC25 [2, 4] | Ventricular EC25 ([3]; Y75 value) | Skeletal EC25 [1, 5] | Ventricular EC25 [3, 5] |
| --- | --- | --- | --- | --- | --- | --- | --- | --- |
| CC(NC(=O)C(F)(F)c1cc2cc(F)ccc2[nH]c1=O)c1cc(C#N)ccn1 (single isomer, unassigned) [Compound 2573] | 100.00 µM | 100000 nM | 100.00 µM | – | – | – | – | – |
| Cc1c(C2(C(=O)N[C@H](C)c3ncc(C#N)cn3)CC2)c(=O)[nH]c2ccc(F)c(C#N)c12 (single isomer, unassigned) [compound 2531] | 2.08 µM | 1290 nM | 15.11 µM | – | – | – | – | – |
| C[C@@H](NC(=O)C(F)(F)c1cc2c(C#N)c(F)ccc2[nH]c1=O)c1ncc(C#N)cc1F (single isomer, unassigned) [Compound 2529] | 0.24 µM | 240 nM | 0.35 µM | – | – | – | – | – |
| CC(C(=O)N[C@@H](C)c1ccc(F)cc1F)c1cc2c(C(F)(F)F)nccc2[nH]c1=O (single isomer, unassigned) [compound 3518] | – | – | – | 9.37 µM | 2050 nM | 100.00 µM | – | – |
| COc1ccccc1[C@@H](C)NC(=O)Cc1c(C)c2c(C)nccc2[nH]c1=O (single isomer, unassigned) [compound 318] | – | – | – | 27.68 µM | 100000 nM | 100.00 µM | – | – |
| C[C@H](NC(=O)Cc1cc2cc(C3CC3)ccc2[nH]c1=O)c1ccc(F)cc1F [compound 117] | 6.32 µM | 100000 nM | 100.00 µM | – | – | – | – | – |
| Cc1cc(C#N)ccc1[C@H](C)NC(=O)Cc1c(O)c2cc(F)c(F)cc2[nH]c1=O [compound 1089] | 100.00 µM | 6410 nM | 42.07 µM | – | – | – | – | – |
| Cc1c(CC(=O)N[C@@H](C)c2ccc(C#N)cc2F)c(=O)[nH]c2ccnc(C(F)(F)F)c12 [compound 162] | – | – | – | 0.02 µM | 130 nM | 0.11 µM | – | – |
| Cc1c(CC(=O)N[C@H](C)c2ncc(F)cc2F)c(=O)[nH]c2ccnc(C(F)(F)F)c12 (single isomer, unassigned) [compound 265] | – | – | – | 3.86 µM | 100000 nM | 100.00 µM | – | – |
| Cc1cc2[nH]c(=O)c(CC(=O)N[C@@H](C)c3ccc(F)cc3F)c(C)c2cn1 [compound 446] | – | – | – | 4.59 µM | 100000 nM | 100.00 µM | – | – |
| C[C@H](NC(=O)C1(c2cc3cc(F)ccc3[nH]c2=O)CC1)c1cc(C#N)ccn1 (single isomer, unassigned) [compound 2537] | – | 100000 nM | – | – | – | – | 100.00‡ μM | 100.00‡ μM |
| Cc1c(CC(=O)N[C@H](c2ccc(F)cc2F)C(C)(C)O)c(=O)[nH]c2ccnc(C#N)c12 (single isomer, unassigned) [compound 280] | – | – | – | 24.76 µM | 100000 nM | 100.00 µM | – | – |
| Cc1c([C@@H](C)C(=O)N[C@@H](C)c2ccc(F)cc2F)c(=O)[nH]c2ccnc(F)c12 (single isomer, unassigned) [compound 376] | – | – | – | 0.03 µM | 160 nM | 1.33 µM | – | – |
| Cc1nccc2[nH]c(=O)c(CC(=O)N[C@@H]3COc4cccnc43)c(C)c12 (single isomer, unassigned) [compound 251] | – | – | – | 100.00 µM | 100000 nM | 100.00 µM | – | – |
| Cc1nccc2[nH]c(=O)c(CC(=O)N[C@@H](C)c3ncccc3F)c(C)c12 (single isomer, unassigned) [compound 268] | – | – | – | 100.00 µM | 100000 nM | 100.00 µM | – | – |
| Cc1nccc2[nH]c(=O)c(C(F)(F)C(=O)N[C@H](CO)c3ncc(C#N)cc3F)c(C)c12 (single isomer, unassigned) [compound 3522] | – | – | – | 0.28 µM | 1100 nM | 2.90 µM | – | – |
